Reference: PMC6902473 (Clinical Epigenetics, 2019)
Where “and” joins values, the source holds several entries; their conditions need not be identical. Equal entries are not always repeated.

Experiments:
clinical = assay: clinical
From the text: The assays were validated according to the common FDA and EMA guidelines on bioanalytical method validation.

[1] = system: relapsed or therapy-refractory solid tumors (including brain tumors), lymphoma, or leukemia; assay: Phase II tumor response and survival at individual MTD (RECIST version 1.1)
Method: (§1) During phase II, disease assessments were performed every 3 months, starting 3 months after reaching individual MTD. If treatment was discontinued for any reason during phase II, treatment was prolonged thereafter to provide a minimal treatment window of 3 months before measuring response. Patients without progressive disease continued the therapy at their individual MTD until disease progression (but no longer than 9 months). In case of clinical benefit, treatment could be continued on an individual basis at the discretion of the investigator. Toxicities were graded according CTCAE V4.0.
(§2) The primary end point was to determine a safe dose recommendation (SDR), defined as the highest dose with a DLT in no more than 1/50 patients.
Pretreatment evaluations included medical history, physical examination, ECG, ß-hCG in urine pregnancy test (if applicable), and complete blood count including differential, serum electrolytes liver, and renal function tests. Tumor markers were determined if appropriate. During phase I and the first 3 months of phase II (until the first response evaluation), history, physical examination, and laboratory studies were obtained weekly. If patients continued treatment beyond the first response evaluation in phase II (i.e., not showing PD), evaluations were performed every 2 weeks. After end of treatment, patients were followed-up for 3 months according the same scheme. In addition, an ECG was performed during phase I on day 8, 15, and at the time of reaching the individual MTD. Disease evaluations were performed at baseline, after 3 months of treatment at individual MTD, and every 3 months thereafter, using MRI (solid tumors, brain tumors, lymphomas), MIBG scan (neuroblastoma), or bone marrow evaluation (leukemia). Responses were reported using RECIST version 1.1 (solid tumors, brain tumors, lymphomas) [42–44] or the International Neuroblastoma Response Criteria (INRC) (neuroblastoma) [45], by central review. Bone marrow aspirates were evaluated in a central lab together with peripheral blood differential blood counts.
Standard methods for survival analysis (e.g., Kaplan-Meier estimates of the survival curves, Greenwood’s formula for estimating the standard error of event rates) were used for the analysis of time-to-event endpoints. […] Efficacy analysis included all patients who had completed the escalation/de-escalation scheme and started with the individual therapy at the MTD.
The AUCs were calculated by mixed log-linear model. Following exploratory aims to predict progression free survival (PFS) and overall survival (OS), an optimal cutpoint in the continuous PK parameter distributions of Cmax and AUC/D was determined by the minimum p value approach based on the log-rank test [51]. Graphical and statistical analysis was performed with Graphpad Prism 7.0 (Graphpad Software Inc., La Jolla, CA, USA), Kinetica 5.0 (Thermo Fisher Scientific, Waltham, MA, USA), and the R software/environment version 3.5.1 (R Foundation for Statistical Computing, Vienna, Austria).

[2] = Phase I/II intra-patient dose escalation trial: safety (DLT, individual MTD, SDR, adverse events CTCAE v4.0)
Method: The study design was a single-arm, multi-center phase I/II clinical trial with two phases: Phase I was an intra-patient dose (de)escalation period until an individual maximum tolerable dose (MTD) was reached. […] A DLT was defined as grade 3 or 4 toxicity according to a selection of Common Toxicity Criteria for Adverse Events (CTCAE) (V4.0) and judged by the investigator as definitely, probably, or possibly related to the study drug. The starting dose was 180 mg/m^2/day and the minimum dose was 30 mg/m^2/day. A dosing nomogram was used to minimize interpatient dosing variability.
De-escalation was done in steps of 50 mg/m^2/day until a minimal dose of 30 mg/m^2/day was reached. […] Upon reaching her or his individual MTD, a patient seamlessly entered phase II of the protocol.
as §1, §2
The DLT associated with the starting dose was to be continuously monitored using a Bayesian criterion with a non-informative prior and a binomial-beta model for the DLT rate r. […] This decision process was repeated, i.e., it was applied to the lowered starting dose in an analogous way.
All adverse events were summarized, using MedDRA preferred terms.

[3] = daily and continuous dosing; cited from earlier work
[4] = single patient: High grade glioma, highest methylation score for glioblastoma IDH wt, (NC) not censored
[5] = single patient: High grade glioma, methylation profile pilocytic astrocytoma, BRAF (p.V600E), (C) censored
[6] = single patient: Medulloblastoma, (C) censored
[7] = single patient: SETTLE tumor, (C) censored
[8] = maximum Grade 3 CTCAE v4.0, n = 50

O=C(CCCCCCC(=O)Nc1ccccc1)NO [vorinostat]
Clearance (clinical; human, in vivo, po): 235 ± 149 L/h | Clearance, 25% Percentile (clinical; human, in vivo, po): 181 L/h | Cmax/D (clinical; human, in vivo, po): 1.70 ± 1.18 (ng/mL)/(mg/d) | Vz (clinical; human, in vivo, po): 644 ± 460 L | Vz, 25% Percentile (clinical; human, in vivo, po): 397 L | t½ (clinical; human, in vivo, po): 1.98 ± 0.96 h | Clearance, Mean (clinical; human, in vivo, po, 530 mg/m2): 408 L/h | Clearance, Median (clinical; human, in vivo, po, 530 mg/m2): 304 L/h | Vz, Maximum (clinical; human, in vivo, po, 530 mg/m2): 1330 L | Vz, Mean (clinical; human, in vivo, po, 530 mg/m2): 1008 L | Vz, Median (clinical; human, in vivo, po, 530 mg/m2): 1186 L | AUC(0-t) (clinical; human, in vivo, po, 530 mg/m2, AUClast, Median): 5.82 µM·h and 1540 ng·h/mL | Tmax (clinical; human, in vivo, po, 530 mg/m2, Tmax, Mean): 2.17 h | half-life (clinical; human, in vivo, po, 530 mg/m2, t1/2, Mean): 1.84 h | half-life (clinical; human, in vivo, po, 530 mg/m2, t1/2, Median): 1.46 h | AUClast, Median (clinical; human, in vivo, po, 580 mg/m2): 10.3 µM·h | Clearance, Maximum (clinical; human, in vivo, po, 580 mg/m2): 453 L/h | Clearance, Mean (clinical; human, in vivo, po, 580 mg/m2): 295 L/h | Clearance, Median (clinical; human, in vivo, po, 580 mg/m2): 211 L/h | Clearance, Minimum (clinical; human, in vivo, po, 580 mg/m2): 155 L/h | Cmax, Maximum (clinical; human, in vivo, po, 580 mg/m2): 1689 ng/mL | Cmax, Minimum (clinical; human, in vivo, po, 580 mg/m2): 315 ng/mL | Tmax, Maximum (clinical; human, in vivo, po, 580 mg/m2): 2.00 h | Tmax, Mean (clinical; human, in vivo, po, 580 mg/m2): 1.40 h | Vz, Maximum (clinical; human, in vivo, po, 580 mg/m2): 2135 L | Vz, Mean (clinical; human, in vivo, po, 580 mg/m2): 793 L | Vz, Median (clinical; human, in vivo, po, 580 mg/m2): 480 L | t1/2, Maximum (clinical; human, in vivo, po, 580 mg/m2): 3.30 h | t1/2, Minimum (clinical; human, in vivo, po, 580 mg/m2): 0.850 h | AUC(0-t) (clinical; human, in vivo, po, 580 mg/m2, AUClast, Mean): 11.3 µM·h | Cmax (clinical; human, in vivo, po, 580 mg/m2, Cmax, Mean): 4.33 µM and 1140 ng/mL | Cmax (clinical; human, in vivo, po, 580 mg/m2, Cmax, Median): 5.42 µM and 1430 ng/mL | half-life (clinical; human, in vivo, po, 580 mg/m2, t1/2, Mean): 1.78 h | half-life (clinical; human, in vivo, po, 580 mg/m2, t1/2, Median): 1.62 h | Tmax (clinical; human, in vivo, po, Tmax): 2.07 ± 1.37 h | Cmax (clinical; read-out: Cmax, Maximum, 530 mg/m2/d oral, plasma, maximum of 3 values): 2380 nM | Cmax (clinical; read-out: Cmax, Minimum, 530 mg/m2/d oral, plasma, minimum of 3 values): 1710 nM | Best ORR (CR + PR + SD) ([1]; Efficacy population (n = 27)): 6 (22.2, 8.6–42.3) No. (%, 95% CI) | Best RR (CR + PR) ([1]; Efficacy population (n = 27)): 4 (14.8, 4.2–33.7) No. (%, 95% CI) | Median OS (95% CI) ([1]; Efficacy population (n = 27)): 22.4 months and 22.4 (6.3 - --) months | Median PFS (95% CI) ([1]; Efficacy population (n = 27)): 5.3 (4.6–5.9) months | Median response duration ([1]; Efficacy population (n = 27)): 19.1 months | best overall response rate (combining PR and SD, no CR observed) ([1]; Efficacy population (n = 27)): 22% | Best ORR (CR + PR + SD) ([1]; Safety population (n = 50)): 6 (12.0, 4.5–24.3) No. (%, 95% CI) | Best RR (CR + PR) ([1]; Safety population (n = 50)): 4 (8.0, 2.2–19.2) No. (%, 95% CI) | Median OS (95% CI) ([1]; Safety population (n = 50)): 6.1 (4.0–10.4) months | Median PFS (95% CI) ([1]; Safety population (n = 50)): 4.6 (3.7–5.3) months | Median response duration ([1]; Safety population (n = 50)): 19.1 months | patients with partial response (PR) ([1]; first response evaluation, after 3-month treatment at individual MTD, efficacy population): 3/27 | OS [1, 4]: 750 (NC) Days | PFS [1, 4]: 441 (NC) Days | OS [1, 5]: 1352 (C) Days | PFS [1, 5]: 385 (C) Days | PFS ([1]; single patient: High grade glioma, no molecular data, last dose level 280 mg/m^2/d, (C) censored): 499 (C) Days | OS ([1]; single patient: High grade glioma, no molecular data, last dose level 280 mg/m^2/d, (NC) not censored): 682 (NC) Days | OS [1, 6]: 871 (C) Days | PFS [1, 6]: 422 (C) Days | OS [1, 7]: 1190 (C) Days | PFS [1, 7]: 456 (C) Days | median individual MTD ([2]; Safety population (n = 50)): 280 mg/m^2/day | patients who reached the maximum individual MTD of 580 mg/m^2/day ([2]; Safety population (n = 50)): 4/50 | treatment-related deaths ([2]; Safety population (n = 50)): No treatment-related deaths | safe dose recommendation (SDR) ([2]; highest dose with a DLT in no more than 1/50 patients, starting dose for individual dose escalation): 130 mg/m^2/day | Patients with treatment related AE: Anemia [2, 8]: 2 (4.0) Patients (%) | Patients with treatment related AE: Decreased appetite [2, 8]: 2 (4.0) Patients (%) | Patients with treatment related AE: Diarrhea [2, 8]: 1 (2.0) Patients (%) | Patients with treatment related AE: Fatigue [2, 8]: 7 (14.0) Patients (%) | Patients with treatment related AE: Headache [2, 8]: 1 (2.0) Patients (%) | Patients with treatment related AE: Hypermagnesemia [2, 8]: 3 (6.0) Patients (%) | Patients with treatment related AE: Nausea [2, 8]: 4 (8.0) Patients (%) | Patients with treatment related AE: Platelet count decreased [2, 8]: 15 Patients (%) and 15 (30.0) Patients (%) | Patients with treatment related AE: Vomiting [2, 8]: 2 (4.0) Patients (%) | Patients with treatment related AE: Weight decreased [2, 8]: 3 (6.0) Patients (%) | Patients with treatment related AE: White blood cell decreased [2, 8]: 8 (16.0) Patients (%) | Patients with treatment related AE: Platelet count decreased ([2]; maximum Grade 4 CTCAE v4.0, n = 50): 16 Patients (%) and 16 (32.0) Patients (%) | maximum individual MTD ([2]; maximum dose of the escalation scheme): 580 mg/m^2/day | MTD ([2]; single patient: High grade glioma, highest methylation score for glioblastoma IDH wt): 530 mg/m^2/d | MTD ([2]; single patient: High grade glioma, methylation profile pilocytic astrocytoma, BRAF (p.V600E)): 280 mg/m^2/d | MTD ([2]; single patient: High grade glioma, no molecular data, last dose level 280 mg/m^2/d): 530 mg/m^2/d | MTD ([2]; single patient: Medulloblastoma): 580 mg/m^2/d | MTD ([2]; single patient: SETTLE tumor): 580 mg/m^2/d | pediatric recommended phase 2 dose [3]: 230 mg/m^2/day
